Source: PubChem BioAssay (NCI)
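Compound exposure: 48 hours, 5 concentrations, 96-well plates. GI50: concentration for 50% inhibition of growth. TGI marks complete inhibition of growth.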

Key:
Assay in all cases: NCI-60 cell line screen, 48 h
K-562 leukemia = tested on: K-562 leukemia
OVCAR-8 ovarian = tested on: OVCAR-8 ovarian
MDA-MB-231 breast = tested on: MDA-MB-231 breast
DU-145 prostate = tested on: DU-145 prostate
HCT-116 colon = tested on: HCT-116 colon
PC-3 prostate = tested on: PC-3 prostate
CCRF-CEM leukemia = tested on: CCRF-CEM leukemia
HOP-62 NSCLC = tested on: HOP-62 NSCLC
A549 NSCLC = tested on: A549 NSCLC
RPMI-8226 leukemia = tested on: RPMI-8226 leukemia

| Compound | TGI (K-562 leukemia) | TGI (OVCAR-8 ovarian) | TGI (MDA-MB-231 breast) | TGI (DU-145 prostate) | TGI (HCT-116 colon) | TGI (PC-3 prostate) | TGI (CCRF-CEM leukemia) | TGI (HOP-62 NSCLC) | TGI (A549 NSCLC) | TGI (RPMI-8226 leukemia) | GI50 (K-562 leukemia) | GI50 (OVCAR-8 ovarian) | GI50 (MDA-MB-231 breast) | GI50 (DU-145 prostate) | GI50 (HCT-116 colon) | GI50 (PC-3 prostate) | GI50 (CCRF-CEM leukemia) | GI50 (HOP-62 NSCLC) | GI50 (A549 NSCLC) | GI50 (RPMI-8226 leukemia) |
| --- | --- | --- | --- | --- | --- | --- | --- | --- | --- | --- | --- | --- | --- | --- | --- | --- | --- | --- | --- | --- |
| COC(=O)C1OC2(CCCC3CC32)O[C@H]1C(=O)OC (stereo not given in full) | > 100 µM | > 100 µM | > 100 µM | > 100 µM | > 100 µM | > 100 µM | > 100 µM | > 100 µM | > 100 µM | > 100 µM | – | – | – | – | – | – | – | – | – | – |
| NC1=NC(c2ccc(Cl)cc2)N(c2ccc(S(N)(=O)=O)cc2)C(N)=N1 (stereo not given) | > 100 µM | > 100 µM | > 100 µM | > 100 µM | > 100 µM | > 100 µM | > 100 µM | > 100 µM | > 100 µM | > 100 µM | – | – | – | – | – | – | – | – | – | – |
| CN(COC(=O)c1ccccc1)c1nc(N(C)COC(=O)c2ccccc2)nc(N(C)COC(=O)c2ccccc2)n1 | > 100 µM | > 100 µM | 53.4 µM | > 100 µM | > 100 µM | > 100 µM | > 100 µM | 40.6 µM | > 100 µM | > 100 µM | – | – | – | – | – | – | – | – | – | – |
| S=c1[nH]nc(Cc2ccccc2)c(=S)[nH]1 | > 100 µM | > 100 µM | > 100 µM | > 100 µM | > 100 µM | 88.2 µM | > 100 µM | > 100 µM | > 100 µM | > 100 µM | – | – | – | – | – | – | – | – | – | – |
| Cc1ccc(-c2c3c(nn2-c2ccc(S(N)(=O)=O)cc2)-c2ccccc2C3)cc1 | 53.9 µM | > 100 µM | 37.4 µM | 33.1 µM | 24.2 µM | 42.6 µM | > 100 µM | 36.1 µM | 70.1 µM | 60.2 µM | 16.2 µM | 36.4 µM | 14.5 µM | 15.6 µM | 11 µM | 16.1 µM | 3.56 µM | 20.6 µM | 23.4 µM | 18.4 µM |
| CC(=O)OC1=CC2=CC[C@H]3[C@@H]4CCC(=O)[C@@]4(C)CC(=O)[C@]3(S)[C@@]2(C)CC1 | 76.7 µM | > 100 µM | 66.8 µM | > 100 µM | 49.3 µM | > 100 µM | > 100 µM | > 100 µM | > 100 µM | 53.5 µM | – | – | – | – | – | – | – | – | – | – |
| COc1ccc(C(c2ccc(OCCN(C)C)cc2)c2cc3ccccc3c3ccccc23)cc1 (stereo not given) | 3.41 µM | 3.17 µM | 3.22 µM | 3.37 µM | 3.14 µM | 3.5 µM | 3.91 µM | 3.07 µM | 3.06 µM | 4.25 µM | 1.49 µM | 1.7 µM | 1.68 µM | 1.77 µM | 1.68 µM | 1.76 µM | 1.8 µM | 1.54 µM | 1.66 µM | 1.93 µM |
